According to the supplement of paper PMC10307832:

Experiments:
Test in all cases: relative viability (nuclei count vs DMSO), 5 days (fraction); higher = more cells survive
[1] = compound: CN1CCN(CC1)C2=CC(=C(C=C2)NC3=NC(=C(S3)C(=O)C4=C(C=CC=C4Cl)Cl)N)OC [XMD14-99] + CC(C)C[C@H](NC(=O)[C@H](Cc1ccccc1)NC(=O)c1cnccn1)B(O)O [Bortezomib] (partner 0.002 µM)
Procedure, shortened: (§1)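 Relative viability is defined as nuclei in treated wells over nuclei in vehicle wells. Duplicate plates were run and medians reported. Lung cancer cell lines in 1536-well plates were dosed by pin tool one day after seeding, with one drug or with a fixed anchor-drug dose plus five library-drug doses (not always all listed) in √10 steps, and nuclei were counted after 5 days.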

[2] = compound: N[C@@H]1CCCN(c2c(/C=C3\SC(=O)NC3=O)cccc2-c2ccccc2)C1 [AZD1208] + Cc1nc(NC(=O)N2CCC[C@H]2C(N)=O)sc1-c1ccnc(C(C)(C)C(F)(F)F)c1 [Alpelisib] (partner 2 µM)
Procedure, shortened: as §1

[3] = compound: CN1CCN(CC1)C2=CC(=C(C=C2)NC3=NC(=C(S3)C(=O)C4=C(C=CC=C4Cl)Cl)N)OC [XMD14-99] + C[C@]1(O)C[C@@H](c2nc(-c3ccc4ccc(-c5ccccc5)nc4c3)c3c(N)nccn32)C1 [Linsitinib] (partner 1 µM)
Procedure, shortened: as §1

[4] = compound: CN1CCN(CC1)C2=CC(=C(C=C2)NC3=NC(=C(S3)C(=O)C4=C(C=CC=C4Cl)Cl)N)OC [XMD14-99] + CC1(C)CCC(c2ccc(Cl)cc2)=C(CN2CCN(c3ccc(C(=O)NS(=O)(=O)c4ccc(N[C@H](CCN5CCOCC5)CSc5ccccc5)c(S(=O)(=O)C(F)(F)F)c4)cc3)CC2)C1 [Navitoclax] (partner 0.5 µM)
Procedure, shortened: as §1

## UMC-11
[1]; first compound 0.08 µM
  relative viability: 0.701
[1]; first compound 0.8 µM
  relative viability: 0.775
[1]; first compound 2.53 µM
  relative viability: 0.673
[1]; first compound 8 µM
  relative viability: 0.526
[2]; first compound 0.08 µM
  relative viability: 0.757
[2]; first compound 0.253 µM
  relative viability: 0.908
[2]; first compound 0.8 µM
  relative viability: 0.746
[2]; first compound 2.53 µM
  relative viability: 0.77
[2]; first compound 8 µM
  relative viability: 0.488
[3]; first compound 0.08 µM
  relative viability: 1.03
[3]; first compound 0.8 µM
  relative viability: 1.03
[3]; first compound 2.53 µM
  relative viability: 1.03
[3]; first compound 8 µM
  relative viability: 0.858
[4]; first compound 0.08 µM
  relative viability: 0.308
[4]; first compound 0.8 µM
  relative viability: 0.33
[4]; first compound 2.53 µM
  relative viability: 0.343
[4]; first compound 8 µM
  relative viability: 0.317
